# Where two headings read alike, the source gives them in different places.
# Legend:
# human HDAC2 = molecular target: T1, human HDAC2 (Homo sapiens, UniProt Q92769); assay: Primary assay: deacetylase activity, recombinantly produced HDAC2; type: biochemical; conditions: for IC50: recombinant HDAC2, read-out: HDAC Inhibition (IC50 unless otherwise specified) HDAC2
# T1 construct: Full length human HDAC2 was subcloned; Flag (C); His6 (from pAcHLT-A vector; purified on Ni-NTA) (N); made in house; host or cells: SF9 insect cells (baculovirus)
# T1 sequence (Q92769 whole entry): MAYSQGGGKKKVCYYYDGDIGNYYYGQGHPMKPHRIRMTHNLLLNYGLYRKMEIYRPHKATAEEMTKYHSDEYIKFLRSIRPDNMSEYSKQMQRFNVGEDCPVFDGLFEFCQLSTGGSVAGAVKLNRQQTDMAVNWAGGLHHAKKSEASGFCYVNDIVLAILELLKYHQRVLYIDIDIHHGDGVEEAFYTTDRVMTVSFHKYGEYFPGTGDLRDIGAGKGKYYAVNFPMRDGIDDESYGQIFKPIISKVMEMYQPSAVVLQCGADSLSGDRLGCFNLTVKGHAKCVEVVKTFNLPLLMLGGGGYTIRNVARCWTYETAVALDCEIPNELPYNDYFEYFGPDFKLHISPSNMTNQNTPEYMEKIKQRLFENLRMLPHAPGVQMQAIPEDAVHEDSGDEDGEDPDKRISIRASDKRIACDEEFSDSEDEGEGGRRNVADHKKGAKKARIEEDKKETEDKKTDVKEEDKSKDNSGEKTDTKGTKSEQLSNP
# Description: (§1) Briefly, this assay relies on the release of radioactive acetate from a radioactively labelled histone fragment by the action of HDAC enzyme. Test compounds, which inhibit HDAC, reduce the yield of radioactive acetate. Signal (e.g., scintillation counts) measured in the presence and absence of a test compound provide an indication of that compound's ability to inhibit HDAC activity. Decreased activity indicates increased inhibition by the test compound.
# (§2) The histone fragment was an N-terminal sequence from histone H4, and it was labelled with radioactively labelled acetyl groups using tritiated acetylcoenzyme A (coA) in conjunction with an enzyme which is the histone acetyltransferase domain of the transcriptional coactivator p300. […] The acetylated peptide was then separated from free acetyl coA by size exclusion chromatography on Sephadex G-15 (Sigma G-15-120), using distilled H2O as the mobile phase.
# (§3) After purification of the radiolabelled histone fragment, it was incubated with a source of HDAC (e.g., an extract of HeLa cells (a rich source of HDAC), recombinantly produced HDAC1 or HDAC2) and any released acetate was extracted into an organic phase and quantitatively determined using scintillation counting. By including a test compound with the source of HDAC, that compound's ability to inhibit the HDAC was determined.
# (§4) Amplification of recombinant viruses was performed according to the Pharmingen Instruction Manual.
# (§5) For protein production, 2×10^7 cells were infected with the appropriate recombinant virus for 3 days. Cells were then harvested and spun at 3,000 rpm for 5 minutes. They were then washed twice in PBS and resuspended in 2 pellet volumes of lysis buffer (25 mM HEPES pH 7.9, 0.1 mM EDTA, 400 mM KCl, 10% glycerol, 0.1% NP-40, 1 mM AEBSF). Resuspended cells were frozen on dry ice and thawed at 37° C. 3 times and centrifuged for 10 minutes at 14,000 rpm. […] Incubation was carried out at 4° C. for 1 hour on a rotating wheel. The slurry was then centrifuged at 500 g for 5 minutes. Beads were washed twice in 1 ml of wash buffer (25 mM HEPES pH7.9, 0.1 mM EDTA, 150 mM KCl, 10% glycerol, 0.1% NP-40, 1 mM AEBSF). Protein was eluted 3 times in 300 μl elution buffer (25 mM HEPES pH 7.9, 0.1 mM EDTA, 250 mM KCl, 10% glycerol, 0.1% NP-40, 1 mM AEBSF) containing increasing concentrations of imidazole: 0.2 M, 0.5 M and 1 M. Each elution was performed for 5 minutes at room temperature. Eluted protein was kept in 50% glycerol at −70° C.
# (§6) A source of HDAC (e.g., 2 μL of crude HeLa extract, 5 μL of HDAC1 or HDAC2; in elution buffer, as above) was incubated with 3 μL of radioactively labelled peptide along with appropriate dilutions of candidate compounds (1.5 μL) in a total volume of 150 μL of buffer (20 mM Tris pH 7.4, 10% glycerol). The reaction was carried out at 37° C. for one hour, after which the reaction was stopped by adding 20 μL of 1 M HCl/0.4 M sodium acetate. […] Radioactivity was measured using a Tri-Carb 2100TR Liquid Scintillation Analyzer (Packard).
# (§7) Percent activity (% activity) for each test compound was calculated as: % activity={(S^C−B)/(S^o−B)}×100 wherein S^C denotes signal measured in the presence of enzyme and the compound being tested, S^o denotes signal measured in the presence of enzyme but in the absence of the compound being tested, and B denotes the background signal measured in the absence of both enzyme and compound being tested.
# HDAC (HeLa cell extract) = assay: Primary assay: deacetylase activity, HeLa cell extract as source of HDAC; type: biochemical, human; conditions: HeLa cell extract
# Procedure, shortened: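 Crude HeLa extract (freeze-thaw in 60 mM TrisCl pH 8.0, 450 mM NaCl, 30% glycerol) was incubated 1 h at 37° C with a [³H]acetyl-labelled histone H4 N-terminal peptide in 20 mM Tris pH 7.4, 10% glycerol.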
# HeLa cells = assay: Secondary assay: cell proliferation WST-1, HeLa; type: cell-based; conditions: Homo sapiens, 48 h, read-out: Cell Proliferation Inhibition WST-1 (IC50 unless otherwise specified) HeLa
# Procedure, shortened: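 Absorbance at 450 nm (reference 690 nm); % activity vs untreated after blank subtraction, IC50 fitted with top 100 and bottom 0.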
# human HDAC1 = molecular target: T2, human HDAC1 (Homo sapiens, UniProt Q13547); assay: Primary assay: deacetylase activity, recombinantly produced HDAC1; type: biochemical; conditions: recombinant HDAC1; read-out: HDAC Inhibition (IC50 unless otherwise specified) HDAC1
# T2 construct: Full length human HDAC1 was cloned by PCR; Flag (C); His6 (from pAcHLT vector; purified on Ni-NTA) (N); made in house; host or cells: SF9 insect cells (baculovirus)
# T2 sequence (Q13547 whole entry): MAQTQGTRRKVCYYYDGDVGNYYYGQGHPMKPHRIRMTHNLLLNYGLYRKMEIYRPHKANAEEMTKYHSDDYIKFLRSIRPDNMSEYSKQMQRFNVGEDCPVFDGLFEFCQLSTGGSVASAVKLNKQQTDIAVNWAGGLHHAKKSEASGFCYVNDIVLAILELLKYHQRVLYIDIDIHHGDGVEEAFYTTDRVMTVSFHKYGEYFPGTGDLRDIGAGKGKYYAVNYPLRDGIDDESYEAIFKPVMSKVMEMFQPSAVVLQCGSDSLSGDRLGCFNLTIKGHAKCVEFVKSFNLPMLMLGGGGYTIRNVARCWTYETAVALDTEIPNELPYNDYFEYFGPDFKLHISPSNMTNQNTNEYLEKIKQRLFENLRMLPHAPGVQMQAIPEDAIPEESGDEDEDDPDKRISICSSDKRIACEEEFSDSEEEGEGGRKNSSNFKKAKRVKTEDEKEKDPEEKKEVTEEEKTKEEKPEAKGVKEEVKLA
# Description: as §1, §2, §3
# Full length human HDAC1 was cloned by PCR using a λgt11 Jurkat cDNA library (Clontech-HL5012b). The amplified fragment was inserted into the EcoRI-Sall sites of pFlag-CTC vector (Sigma-E5394), in frame with the Flag tag. A second PCR was carried out in order to amplify a fragment containing the HDAC1 sequence fused to the Flag tag.
# as §4, §5, §6, §7
# JURKAT human T-cell line = assay: Secondary assay: cell proliferation WST-1, Jurkat; type: cell-based; conditions: Homo sapiens, 48 h, read-out: Cell Proliferation Inhibition WST-1 (IC50 unless otherwise specified) Jurkat
# Method: (§8) Compounds with HDAC inhibition activity, as determined using the primary assay, were subsequently evaluated using secondary cell-based assays. The following cell lines were used:
# JURKAT—Human T-cell line (ATCC no. TIB-152).
# (§9) Cells were plated in 96-well plates at 3-10×10^3 cells/well in 100 μL of culture medium. The following day, different concentrations of candidate compounds were added and the cells incubated at 37° C. for 48 h. Subsequently, 10 μL/well of WST-1 reagent was added and the cells reincubated for 1 hour. After the incubation time, absorbance was measured.
# (§10) WST-1 is a tetrazolium salt which is cleaved to formazan dye by cellular enzymes. An expansion in the number of viable cells results in an increase in the overall activity of mitochondrial dehydrogenases in the sample. This augmentation in the enzyme activity leads to an increase in the amount of formazan dye formed, which directly correlates to the number of metabolically active cells in the culture. The formazan dye produced is quantified by a scanning multiwell spectrophotometer by measuring the absorbance of the dye solution at 450 nm wavelength (reference wavelength 690 nm).
# (§11) Percent activity (% activity) in reducing the number of viable cells was calculated for each test compound as: % activity={(S^C−B)/(S^o−B)}×100 wherein S^C denotes signal measured in the presence of the compound being tested, S^o denotes signal measured in the absence of the compound being tested, and B denotes the background signal measured in blank wells containing medium only.
# (§12) IC50 values were calculated using the software package Prism 3.0 (GraphPad software Inc., San Diego, Calif.), setting top value at 100 and bottom value at 0.
# [1] = tested on: K11 HPV E7 transformed human keratinocyte line; assay: Secondary assay: cell proliferation WST-1, K11; type: cell-based; conditions: Homo sapiens, Keratinocyte, 48 h, read-out: Cell Proliferation Inhibition WST-1 (IC50 unless otherwise specified) K11
# Method: as §8
# K11—HPV E7 transformed human keratinocyte line provided by Pidder Jansen-Duerr, Institut für Biomedizinische Alternsforschung, Innsbruck, Austria.
# as §9, §10, §11, §12
# [2] = read-out: HDAC Inhibition (IC50 unless otherwise specified) HeLa
"HDAC Inhibition HDAC2, percent (human HDAC2; recombinant HDAC2, @ 5 μM) [% @ 5 μM]",IC50 (human HDAC2) [µM],melting point,IC50 (HeLa cells) [µM],IC50 (human HDAC1) [µM],IC50 (HDAC (HeLa cell extract); [2]) [µM],"IC50 (HDAC (HeLa cell extract); comparative tables, no unit in cell, read-out: HeLa IC50) [µM]",Compound,"HDAC Inhibition HeLa, percent (HDAC (HeLa cell extract); @ 1 μM) [% @ 1 μM]","percent HDAC inhibition at the stated concentration (HDAC (HeLa cell extract); comparative tables, @ 1 μM) [% @ 1 μM]",IC50 (JURKAT human T-cell line) [µM],IC50 [1] [µM],"HDAC Inhibition HeLa, percent (HDAC (HeLa cell extract); @ 500 nM) [% @ 500 nM]"
18,,,,,,,"CN(C)c1ccc(C(=O)NCCC(=O)NO)c2ccccc12 [PX082530, 4-Dimethylamino-napthalene-1-carboxylic acid (2-hydroxycarbamoyl-ethyl)-amide]",13,13,,,
,0.688,102 to 104 °C,,,,,"O=C(CCCCCNC(=O)c1ccccc1)NO [PX083449, N-(5-Hydroxycarbamoyl-pentyl)-benzamide]",,,,,
,0.48,135 to 136 °C,2.3,0.175,0.466,0.466,"CN(C)c1ccc(C(=O)NCCCCCC(=O)NO)c2ccccc12 [PX089275, 4-Dimethylamino-napthalene-1-carboxylic acid (5-hydroxycarbamoyl-pentyl)-amide]",,,,,
,0.312,131 to 132 °C,6.3,0.25,0.165,,"COc1ccc(C(=O)NCCCCCC(=O)NO)cc1 [PX089276, N-(5-Hydroxycarbamoyl-pentyl)-4-methoxy-benzamide]",,,,,
,31,,114,,21.9,,CC(/C=C/C(=O)NCCCC(=O)NO)=C\c1ccccc1 [PX105554],,,20,,
,28,,,,,,CN(C)c1ccc(/C=C/C=C/C(=O)NCCCC(=O)NO)cc1 [PX105669],,,,,
,,201 °C (dec.),5.2,0.069,0.069,,"O=C(CCCCCNC(=O)c1nc2ccccc2[nH]1)NO [PX105824, 1H-Benzimidazole-2-carboxylic acid (5-hydroxycarbamoylpentyl)amide]",,,,,
,0.038,129 to 131 °C,3.8,0.031,0.054,,"CC(/C=C/C(=O)NCCCCCC(=O)NO)=C\c1ccccc1 [PX105829, (2E,4E)-4-Methyl-5-phenylpenta-2,4-dienoic acid (5-hydroxycarbamoylpentyl)amide]",,,,,
,0.069,191 to 193 °C,9,0.064,0.033,,"O=C(/C=C/c1ccc2c(c1)OCO2)NCCCCCC(=O)NO [PX105831, (E)-3-Benzo[1,3]dioxol-5-yl-N-(5-hydroxycarbamoylpentyl)acrylamide]",,,,,
,,55 to 56 °C,60,4,3.3,,"O=C(CCCCCNC(=O)C(c1ccccc1)c1ccccc1)NO [PX106489, 6-Diphenylacetylamino-hexanoic acid hydroxyamide]",,,,,
,,178 °C,,0.438,,,"O=C(/C=C/c1cccc(NC(=O)/C=C/c2ccccc2)c1)NO [PX106513, N-Hydroxy-3-[3-(3-phenylacryloylamino)-phenyl]-acrylamide]",,43,,,43

Compound,"HDAC Inhibition HDAC2, percent (human HDAC2; recombinant HDAC2, @ 5 μM) [% @ 5 μM]",IC50 (human HDAC2) [µM],melting point,IC50 (HeLa cells) [µM],IC50 (human HDAC1) [µM],IC50 (HDAC (HeLa cell extract); [2]) [µM],"IC50 (HDAC (HeLa cell extract); comparative tables, no unit in cell, read-out: HeLa IC50) [µM]","HDAC Inhibition HeLa, percent (HDAC (HeLa cell extract); @ 1 μM) [% @ 1 μM]","percent HDAC inhibition at the stated concentration (HDAC (HeLa cell extract); comparative tables, @ 1 μM) [% @ 1 μM]",IC50 (JURKAT human T-cell line) [µM],IC50 [1] [µM],"HDAC Inhibition HeLa, percent (HDAC (HeLa cell extract); @ 500 nM) [% @ 500 nM]"
"O=C(/C=C/C=C/c1ccccc1)NC[C@H]1CC[C@H](C(=O)NO)CC1 [PX105552, 4-[((2E)(4E)-5-Phenylpenta-2,4-dienoylamino)methyl] cyclohexanecarboxylic acid hydroxyamide]",,0.967,210 to 212 °C,10,,0.5,,,,7.9,10,
"O=C(/C=C/C#Cc1ccccc1)NCCCCCC(=O)NO [PX106525, (E)-5-Phenylpent-2-en-4-ynoic acid (5-hydroxycarbamoylpentyl)amide]",,,146 to 148 °C,4.7,0.037,0.028,,,,3.6,2.8,
"CC(=C\c1ccccc1)/C=C(\C)C(=O)NCCCCCC(=O)NO [PX117738, (2E)(4E)-2,4-Dimethyl-5-phenylpenta-2,4-dienoic acid (5-hydroxycarbamoyl-pentyl)amide]",,,120 to 122 °C,24,,0.131,,,,1.7,3.2,
"O=C(CCCCCNC(=O)[C@H](Cc1c[nH]c2ccccc12)NC(=O)CCCc1c[nH]c2ccccc12)NO [PX117767, N-Hydroxy-6-[((2S)-3-(1H-indol-3-yl)-2-{[4-(1H-indol-3-yl)butanoyl]amino}propanoyl)-amino]hexanamide]",,,94 to 96 °C,15,,0.09,,,,3,6.2,
"O=C(CCCCCNC(=O)CC/C=C/c1ccccc1)NO [PX117797, (E)-N-[6-(Hydroxyamino)-6-oxohexyl]-5-phenyl-4-pentenamide]",,,131 to 133 °C,21,,0.688,,,,5.6,21,

# — US7569724B2, “Carbamic acid compounds comprising an amide linkage as HDAC inhibitors” (Topotarget UK Limited, priority 2000, dated 2009)
